How the values were obtained:
[1] = tested on: TGF-β signaling (TGF-β pSMAD, MPC-11); experiment: AlphaScreen SureFire SMAD3 (p-Ser423/425) assay, inhibition of TGF-β signaling; type: cell-based; settings: Mus musculus, MPC-11, inhibition of TGF-β signaling, p-SMAD3 readout
[2] = tested on: GDF8 signaling (GDF pSMAD, MPC11); experiment: AlphaScreen SureFire SMAD3 (p-Ser423/425) assay, inhibition of GDF8 signaling; type: cell-based; settings: Mus musculus, MPC-11, inhibition of GDF8 signaling, p-SMAD3 readout

`Cc1nc(-c2ccc(F)c(F)c2)c(-c2ccc3ncccc3c2)[nH]1` [Compound 88, 6-(4-(3,4-Difluorophenyl)-2-methyl-1H-imidazol-5-yl)quinoline] was tested, and the IC50 [1] was 11500 nM and the IC50 [2] was 1020 nM.

In the case of `Cc1cccc(-c2ncn(C)c2-c2ccc3[nH]ncc3c2)c1` [Compound 41, 5-(1-Methyl-4-(m-tolyl)-1H-imidazol-5-yl)-1H-indazole], the IC50 [1] is reported as 60 nM and the IC50 [2] is reported as 20 nM.

Compound `Cc1nc(-c2ccc(F)c(C)c2)c(-c2ccc3nccnc3c2)[nH]1` [Compound 76, 6-(4-(4-Fluoro-3-methylphenyl)-2-methyl-1H-imidazol-5-yl)quinoxaline] has an IC50 [1] of 1210 nM and an IC50 [2] of 190 nM.

`Fc1ccc(-c2nc[nH]c2-c2ccc3cn[nH]c3c2)cc1F` [Compound 32, 6-(4-(3,4-Difluorophenyl)-1H-imidazol-5-yl)-1H-indazole] gave an IC50 [1] of 140 nM and an IC50 [2] of 50 nM.

`Nc1nc(-c2cccc(Cl)c2)c(-c2ccc3nccnc3c2)s1` [Compound 169, 4-(3-chlorophenyl)-5-(quinoxalin-6-yl)thiazol-2-amine] was tested, and the IC50 [1] was 236 nM and the IC50 [2] was 95.1 nM.

Compound `Fc1ccc(-c2nc(C(F)(F)F)[nH]c2-c2ccc3ncnn3c2)cc1` [Compound 151, 6-(4-(4-Fluorophenyl)-2-(trifluoromethyl)-1H-imidazol-5-yl)-[1,2,4]triazolo[1,5-a]pyridine] has an IC50 [1] of 1400 nM and an IC50 [2] of 590 nM.

`Cc1nc(-c2ccc(F)c(F)c2)c(-c2ccc3nccnc3c2)[nH]1` [Compound 89, 6-(4-(3,4-Difluorophenyl)-2-methyl-1H-imidazol-5-yl)quinoxaline] showed an IC50 [1] of 4190 nM and an IC50 [2] of 430 nM.

Compound `CCc1nc(-c2ccc(F)cc2)c(-c2ccc3ncsc3c2)[nH]1` [Compound 122, 6-(2-Ethyl-4-(4-fluorophenyl)-1H-imidazol-5-yl)benzo[d]thiazole] has an IC50 [1] of 4530 nM and an IC50 [2] of 580 nM.

Compound `Cc1cc(-c2ncn(C)c2-c2ccc3ncn(C)c3c2)ccc1F` [Compound 8, 6-(4-(4-Fluoro-3-methylphenyl)-1-methyl-1H-imidazol-5-yl)-1-methyl-1H-benzo[d]imidazole] has an IC50 [1] of 210 nM and an IC50 [2] of 90 nM.

For `CCc1nc(-c2cc(C)cc(F)c2)c(-c2ccc3[nH]ncc3c2)[nH]1` [Compound 142, 5-(2-Ethyl-4-(3-fluoro-5-methylphenyl)-1H-imidazol-5-yl)-1H-indazole], the IC50 [1] was 4390 nM and the IC50 [2] was 670 nM.

`CCc1nc(-c2cccc(C)c2)c(-c2ccc3nccnc3c2)[nH]1` [Compound 118, 6-(2-Ethyl-4-(m-tolyl)-1H-imidazol-5-yl)quinoxaline] gave an IC50 [1] of 1390 nM and an IC50 [2] of 230 nM.

For `Cc1nc(-c2cc(F)cc(F)c2)c(-c2ccc3[nH]ncc3c2)[nH]1` [Compound 148, 5-(4-(3,5-Difluorophenyl)-2-methyl-1H-imidazol-5-yl)-1H-indazole], the IC50 [1] was 2840 nM and the IC50 [2] was 730 nM.

`CCc1nc(-c2ccc(F)c(F)c2)c(-c2ccc3nccn3c2)[nH]1` [Compound 134, 6-(4-(3,4-Difluorophenyl)-2-ethyl-1H-imidazol-5-yl)imidazo[1,2-a]pyridine] gave an IC50 [1] of 2540 nM and an IC50 [2] of 870 nM.

Work on `CNc1nc(-c2ccc(F)cc2)c(-c2ccc3nccn3c2)s1` [Compound 188, 4-(4-fluorophenyl)-5-(imidazo[1,2-a]pyridin-6-yl)-N-methylthiazol-2-amine] yielded an IC50 [1] of 365 nM and an IC50 [2] of 784 nM.

Work on `CCc1nc(-c2cccc(F)c2)c(-c2ccc3nccn3c2)[nH]1` [Compound 138, 6-(2-Ethyl-4-(3-fluorophenyl)-1H-imidazol-5-yl)imidazo[1,2-a]pyridine] yielded an IC50 [1] of 3260 nM and an IC50 [2] of 730 nM.

`Clc1cccc(-c2nc[nH]c2-c2ccc3cn[nH]c3c2)c1` [Compound 23, 6-(4-(3-Chlorophenyl)-1H-imidazol-5-yl)-1H-indazole] was tested, and the IC50 [1] was 30 nM and the IC50 [2] was 10 nM.

Work on `Cn1cnc(-c2cccc(Cl)c2)c1-c1ccc2cn[nH]c2c1` [Compound 61, 6-(4-(3-Chlorophenyl)-1-methyl-1H-imidazol-5-yl)-1H-indazole] yielded an IC50 [1] of 150 nM and an IC50 [2] of 30 nM.

Compound `Cc1cc(-c2ncn(C)c2-c2ccc3ncccc3c2)ccc1F` [Compound 37, 6-(4-(4-Fluoro-3-methylphenyl)-1-methyl-1H-imidazol-5-yl)quinoline] has an IC50 [1] of 920 nM and an IC50 [2] of 260 nM.

`Cn1cnc(-c2cccc(Cl)c2)c1-c1ccc2[nH]ncc2c1` [Compound 60, 5-(4-(3-Chlorophenyl)-1-methyl-1H-imidazol-5-yl)-1H-indazole] was tested, and the IC50 [1] was 60 nM and the IC50 [2] was 20 nM.

`CCc1nc(-c2cc(C)cc(F)c2)c(-c2ccc3nccn3c2)[nH]1` [Compound 146, 6-(2-Ethyl-4-(3-fluoro-5-methylphenyl)-1H-imidazol-5-yl)imidazo[1,2-a]pyridine] was tested, and the IC50 [1] was 5960 nM and the IC50 [2] was 1000 nM.

For `Cc1cc(-c2ncn(C)c2-c2ccc3nccnc3c2)ccc1F` [Compound 21, 6-(4-(4-Fluoro-3-methylphenyl)-1-methyl-1H-imidazol-5-yl)quinoxaline], the IC50 [1] was 740 nM and the IC50 [2] was 380 nM.

`CCc1nc(-c2ccc(F)c(F)c2)c(-c2ccc3[nH]ncc3c2)[nH]1` [Compound 130, 5-(4-(3,4-Difluorophenyl)-2-ethyl-1H-imidazol-5-yl)-1H-indazole] showed an IC50 [1] of 2320 nM and an IC50 [2] of 650 nM.

Compound `Cn1cnc2ccc(-c3[nH]cnc3-c3ccc(F)c(F)c3)cc21` [Compound 33, 6-(4-(3,4-Difluorophenyl)-1H-imidazol-5-yl)-1-methyl-1H-benzo[d]imidazole] has an IC50 [1] of 70 nM and an IC50 [2] of 60 nM.

`Clc1cccc(-c2nc[nH]c2-c2ccc3[nH]ncc3c2)c1` [Compound 22, 5-(4-(3-Chlorophenyl)-1H-imidazol-5-yl)-1H-indazole] was tested, and the IC50 [1] was 30 nM and the IC50 [2] was 20 nM.

Work on `Nc1nc(-c2cccc(F)c2)c(-c2ccc3[nH]ncc3c2)s1` [Compound 179, 4-(3-fluorophenyl)-5-(1H-indazol-5-yl)thiazol-2-amine] yielded an IC50 [1] of 1280 nM and an IC50 [2] of 268 nM.

Work on `CCc1nc(-c2ccc(F)c(F)c2)c(-c2ccc3nccnc3c2)[nH]1` [Compound 135, 6-(4-(3,4-Difluorophenyl)-2-ethyl-1H-imidazol-5-yl)quinoxaline] yielded an IC50 [1] of 3420 nM and an IC50 [2] of 770 nM.

In the case of `CCc1nc(-c2cc(C)cc(F)c2)c(-c2ccc3cn[nH]c3c2)[nH]1` [Compound 143, 6-(2-Ethyl-4-(3-fluoro-5-methylphenyl)-1H-imidazol-5-yl)-1H-indazole], the IC50 [1] is reported as 3140 nM and the IC50 [2] is reported as 450 nM.

In the case of `CCc1nc(-c2cc(F)cc(F)c2)c(-c2ccc3ncsc3c2)[nH]1` [Compound 149, 6-(4-(3,5-Difluorophenyl)-2-ethyl-1H-imidazol-5-yl)benzo[d]thiazole], the IC50 [1] is reported as 3220 nM and the IC50 [2] is reported as 720 nM.

Compound `COc1cccc(-c2nc(N)sc2-c2ccc3ncsc3c2)c1` [Compound 186, 5-(benzo[d]thiazol-6-yl)-4-(3-methoxyphenyl)thiazol-2-amine] has an IC50 [1] of 1110 nM and an IC50 [2] of 478 nM.

`Cc1cc(-c2nc(N)sc2-c2ccc3nccnc3c2)ccc1F` [Compound 158, 4-(4-fluoro-3-methylphenyl)-5-(quinoxalin-6-yl)thiazol-2-amine] was tested, and the IC50 [1] was 228 nM and the IC50 [2] was 36 nM.

Work on `Cc1cccc(-c2nc[nH]c2-c2ccc3ncsc3c2)c1` [Compound 18, 6-(4-(m-Tolyl)-1H-imidazol-5-yl)benzo[d]thiazole] yielded an IC50 [1] of 150 nM and an IC50 [2] of 40 nM.

Work on `CCc1nc(-c2cc(C)cc(F)c2)c(-c2ccc3ncnn3c2)[nH]1` [Compound 144, 6-(2-Ethyl-4-(3-fluoro-5-methylphenyl)-1H-imidazol-5-yl)-[1,2,4]triazolo[1,5-a]pyridine] yielded an IC50 [1] of 1530 nM and an IC50 [2] of 310 nM.

`CCc1nc(-c2cccc(C)c2)c(-c2ccc3[nH]ncc3c2)[nH]1` [Compound 113, 5-(2-Ethyl-4-(m-tolyl)-1H-imidazol-5-yl)-1H-indazole] gave an IC50 [1] of 3110 nM and an IC50 [2] of 460 nM.

`Cc1cc(-c2nc(N)sc2-c2ccc3cn[nH]c3c2)ccc1F` [Compound 174, 4-(4-fluoro-3-methylphenyl)-5-(1H-indazol-6-yl)thiazol-2-amine] gave an IC50 [1] of 431 nM and an IC50 [2] of 144 nM.

`Cc1cc(-c2nc[nH]c2-c2ccc3[nH]ncc3c2)ccc1F` [Compound 3, 5-(4-(4-Fluoro-3-methylphenyl)-1H-imidazol-5-yl)-1H-indazole] was tested, and the IC50 [1] was 10 nM and the IC50 [2] was 10 nM.

`Cc1nc(-c2ccc(F)c(C)c2)c(-c2ccc3ncccc3c2)[nH]1` [Compound 75, 6-(4-(4-Fluoro-3-methylphenyl)-2-methyl-1H-imidazol-5-yl)quinoline] showed an IC50 [1] of 4390 nM and an IC50 [2] of 510 nM.

`Cn1cnc(-c2ccc(F)c(F)c2)c1-c1ccc2ncn(C)c2c1` [Compound 66, 6-(4-(3,4-Difluorophenyl)-1-methyl-1H-imidazol-5-yl)-1-methyl-1H-benzo[d]imidazole] was tested, and the IC50 [1] was 980 nM and the IC50 [2] was 520 nM.

For `Cc1cccc(-c2nc(C)n(C)c2-c2ccc3ncn(C)c3c2)c1` [Compound 58, 6-(1,2-Dimethyl-4-(m-tolyl)-1H-imidazol-5-yl)-1-methyl-1H-benzo[d]imidazole], the IC50 [1] was 9640 nM and the IC50 [2] was 990 nM.

`Cc1nc(-c2ccc(F)cc2)c(-c2ccc3ncn(C)c3c2)[nH]1` [Compound 79, 6-(4-(4-Fluorophenyl)-2-methyl-1H-imidazol-5-yl)-1-methyl-1H-benzo[d]imidazole] showed an IC50 [1] of 850 nM and an IC50 [2] of 110 nM.

`CCc1nc(-c2ccc(F)c(F)c2)c(-c2ccc3cn[nH]c3c2)[nH]1` [Compound 131, 6-(4-(3,4-Difluorophenyl)-2-ethyl-1H-imidazol-5-yl)-1H-indazole] gave an IC50 [1] of 3910 nM and an IC50 [2] of 920 nM.

In the case of `Cc1cc(-c2nc(C)n(C)c2-c2ccc3[nH]ncc3c2)ccc1F` [Compound 52, 5-(4-(4-Fluoro-3-methylphenyl)-1,2-dimethyl-1H-imidazol-5-yl)-1H-indazole], the IC50 [1] is reported as 910 nM and the IC50 [2] is reported as 210 nM.

`Cc1nc(-c2cc(F)c(F)cc2F)c(-c2ccc3ncsc3c2)[nH]1` [Compound 99, 6-(2-Methyl-4-(2,4,5-trifluorophenyl)-1H-imidazol-5-yl)benzo[d]thiazole] gave an IC50 [1] of 240 nM and an IC50 [2] of 40 nM.

— patent US10287295B2, “TGF-β inhibitors” (Rigel Pharmaceuticals, Inc., priority 2015, dated 2019)
